Values quoted from earlier work, collected in patent US20020054922A1, “Cosmetic composition and method” (priority 2000, published 2002).

Test system: skin punch biopsy wound
Conditions: 25 micrograms estradiol per 24 hours by skin patch

C[C@]12CC[C@@H]3c4ccc(O)cc4CC[C@H]3[C@@H]1CC[C@@H]2O [estrogen, estradiol]
fibronectin levels compared to placebo (day 7): increased fibronectin levels | wound size compared to placebo (day 7, aged men and women): decrease in wound size | collagen levels compared to placebo (days 7 and 80): increased collagen levels
